What all share (type): biochemical
Holding throughout (settings): 10 μM ATP, 60 min, ADP-GLO luminescence

One assay has as its target c-MET (Homo sapiens, UniProt P08581). Put plainly: Enzymatic assay (ADP-Glo kinase reaction), c-MET. As to the method:
(§1) All the kinase reactions were performed in 5 μL using tyrosine kinase buffer with 0.2 μg/μL poly (Glu4, Tyr1) substrate, 10 μM ATP, serial dilution of the inhibitor, and incubated at room temperature for 60 min. After the indicated incubation times, 5 μL ADP-GLO™ reagent (Promega, Madison, WI) was added to the reactions and the plate was incubated at room temperature for 40 min. […] All 384-well assay plates were read using a GLOMAX™ Discover Microplate Luminometer from Promega (Madison, WI). To plot, analyze the data and calculate all kinase reaction biochemical values, both Microsoft Excel and Prism from GraphPad 7 Software (La Jolla, CA) were used.
On the technique in general: In ADP-Glo the light output rises with the ADP produced.

For another assay, the target named is T1, MER (Homo sapiens, UniProt Q12866).
T1 sequence (Q12866 21-999): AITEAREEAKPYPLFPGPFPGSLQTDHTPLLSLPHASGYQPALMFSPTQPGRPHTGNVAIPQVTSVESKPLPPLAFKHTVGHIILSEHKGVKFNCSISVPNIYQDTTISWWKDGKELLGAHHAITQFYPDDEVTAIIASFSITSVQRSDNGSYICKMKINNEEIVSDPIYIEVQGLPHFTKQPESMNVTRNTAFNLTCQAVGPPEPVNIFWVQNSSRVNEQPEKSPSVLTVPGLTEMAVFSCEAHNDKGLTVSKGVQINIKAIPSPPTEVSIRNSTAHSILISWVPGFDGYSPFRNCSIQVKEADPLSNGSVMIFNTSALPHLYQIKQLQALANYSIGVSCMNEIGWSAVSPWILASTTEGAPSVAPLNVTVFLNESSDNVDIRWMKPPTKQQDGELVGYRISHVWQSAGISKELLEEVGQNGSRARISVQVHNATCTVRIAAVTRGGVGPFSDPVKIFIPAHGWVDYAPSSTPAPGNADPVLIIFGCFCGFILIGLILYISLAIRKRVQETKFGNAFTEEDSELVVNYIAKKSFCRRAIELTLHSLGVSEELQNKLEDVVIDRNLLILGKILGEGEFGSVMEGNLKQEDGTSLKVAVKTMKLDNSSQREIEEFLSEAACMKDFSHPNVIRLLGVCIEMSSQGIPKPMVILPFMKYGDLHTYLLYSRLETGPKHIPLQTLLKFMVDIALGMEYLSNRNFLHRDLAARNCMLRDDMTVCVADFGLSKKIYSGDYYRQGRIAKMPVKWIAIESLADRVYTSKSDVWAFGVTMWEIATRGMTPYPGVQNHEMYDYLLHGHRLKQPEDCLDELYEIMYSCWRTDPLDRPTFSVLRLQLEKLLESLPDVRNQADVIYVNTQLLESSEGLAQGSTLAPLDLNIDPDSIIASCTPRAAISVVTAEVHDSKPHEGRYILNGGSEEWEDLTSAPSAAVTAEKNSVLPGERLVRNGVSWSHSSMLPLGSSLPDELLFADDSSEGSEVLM
Put plainly: Enzymatic assay (ADP-Glo kinase reaction), MER. As to the method:
(§2) All the kinase reactions were performed in 5 μL using tyrosine kinase buffer with 0.2 μg/μL poly (Glu4, Tyr1) substrate, 10 μM ATP, serial dilution of the inhibitor, and incubated at room temperature for 60 min. After the indicated incubation times, 5 μL ADP-GLO™ reagent (Promega, Madison, WI) was added to the reactions and the plate was incubated at room temperature for 40 min. Then, 10 μL of kinase detection reagent was added and after an incubation time of 40 min, luminescence was recorded and IC50 values were determined (Table 1). All 384-well assay plates were read using a GLOMAX™ Discover Microplate Luminometer from Promega (Madison, WI). To plot, analyze the data and calculate all kinase reaction biochemical values, both Microsoft Excel and Prism from GraphPad 7 Software (La Jolla, CA) were used.
as §2, with “3).” for “1).”

The next assay deals with T2, AXL (Homo sapiens, UniProt P30530).
T2 sequence (P30530 26-894): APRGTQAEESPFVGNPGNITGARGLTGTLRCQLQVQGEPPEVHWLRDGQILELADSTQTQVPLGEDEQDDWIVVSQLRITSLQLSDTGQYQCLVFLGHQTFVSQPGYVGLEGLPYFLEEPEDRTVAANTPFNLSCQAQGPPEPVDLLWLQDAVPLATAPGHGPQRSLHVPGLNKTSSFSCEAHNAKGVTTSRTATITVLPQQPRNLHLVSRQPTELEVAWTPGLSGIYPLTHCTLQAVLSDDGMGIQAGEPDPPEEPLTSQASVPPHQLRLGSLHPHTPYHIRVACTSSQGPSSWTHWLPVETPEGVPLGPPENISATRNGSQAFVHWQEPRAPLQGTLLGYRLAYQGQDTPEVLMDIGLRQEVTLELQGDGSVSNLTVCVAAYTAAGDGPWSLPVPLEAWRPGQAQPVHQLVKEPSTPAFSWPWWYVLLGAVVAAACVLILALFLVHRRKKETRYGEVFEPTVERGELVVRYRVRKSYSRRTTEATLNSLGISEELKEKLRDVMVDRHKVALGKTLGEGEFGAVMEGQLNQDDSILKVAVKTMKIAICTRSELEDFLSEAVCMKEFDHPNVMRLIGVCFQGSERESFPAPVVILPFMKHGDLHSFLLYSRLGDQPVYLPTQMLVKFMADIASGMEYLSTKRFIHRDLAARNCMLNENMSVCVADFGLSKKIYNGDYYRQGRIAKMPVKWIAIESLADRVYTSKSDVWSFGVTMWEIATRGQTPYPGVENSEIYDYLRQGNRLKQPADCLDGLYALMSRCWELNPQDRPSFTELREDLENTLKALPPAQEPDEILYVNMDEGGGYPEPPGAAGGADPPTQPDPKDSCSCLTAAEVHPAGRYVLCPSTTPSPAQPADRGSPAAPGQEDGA
Put plainly: Enzymatic assay (ADP-Glo kinase reaction), AXL. As to the method:
as §1

Sequence of c-MET (P08581 25-1390): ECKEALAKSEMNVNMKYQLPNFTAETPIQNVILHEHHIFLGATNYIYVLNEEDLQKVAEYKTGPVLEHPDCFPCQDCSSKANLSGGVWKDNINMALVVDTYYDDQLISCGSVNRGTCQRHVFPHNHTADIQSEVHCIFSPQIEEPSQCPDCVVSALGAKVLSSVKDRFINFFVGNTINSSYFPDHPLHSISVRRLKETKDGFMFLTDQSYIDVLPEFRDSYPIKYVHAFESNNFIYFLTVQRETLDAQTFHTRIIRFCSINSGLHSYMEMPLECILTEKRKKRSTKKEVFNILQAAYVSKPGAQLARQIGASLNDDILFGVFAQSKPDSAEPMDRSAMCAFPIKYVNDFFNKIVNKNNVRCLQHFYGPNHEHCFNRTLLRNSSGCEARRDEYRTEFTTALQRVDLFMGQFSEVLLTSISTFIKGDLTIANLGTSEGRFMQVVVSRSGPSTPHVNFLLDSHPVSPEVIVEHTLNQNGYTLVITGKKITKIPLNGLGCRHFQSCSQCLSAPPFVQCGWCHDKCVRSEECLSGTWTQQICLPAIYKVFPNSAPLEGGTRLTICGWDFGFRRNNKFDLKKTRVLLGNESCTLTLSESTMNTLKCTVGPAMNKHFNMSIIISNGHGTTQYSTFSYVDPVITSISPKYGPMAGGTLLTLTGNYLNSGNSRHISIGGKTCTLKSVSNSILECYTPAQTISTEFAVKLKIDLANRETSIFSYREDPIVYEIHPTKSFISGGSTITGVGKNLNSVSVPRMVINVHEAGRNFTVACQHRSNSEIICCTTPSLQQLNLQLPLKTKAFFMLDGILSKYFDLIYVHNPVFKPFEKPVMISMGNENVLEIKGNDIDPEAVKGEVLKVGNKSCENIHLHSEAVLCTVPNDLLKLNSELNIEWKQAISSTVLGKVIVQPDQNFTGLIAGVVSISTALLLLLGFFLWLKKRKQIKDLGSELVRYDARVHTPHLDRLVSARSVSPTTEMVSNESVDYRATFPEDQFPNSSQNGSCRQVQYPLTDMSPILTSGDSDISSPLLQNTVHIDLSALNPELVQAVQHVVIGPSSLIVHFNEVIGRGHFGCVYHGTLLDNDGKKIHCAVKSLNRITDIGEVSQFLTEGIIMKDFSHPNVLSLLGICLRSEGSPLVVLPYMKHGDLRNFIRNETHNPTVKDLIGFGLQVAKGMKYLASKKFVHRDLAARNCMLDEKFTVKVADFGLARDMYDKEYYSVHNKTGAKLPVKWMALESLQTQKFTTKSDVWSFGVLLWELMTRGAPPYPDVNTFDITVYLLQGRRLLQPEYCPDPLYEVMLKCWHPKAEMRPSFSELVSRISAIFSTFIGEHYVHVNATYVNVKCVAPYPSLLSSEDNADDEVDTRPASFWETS

For `CC(C)n1cc(C(=O)Nc2ccc(Oc3ccnc(N)c3C#CCC3CCNCC3)c(F)c2)c(=O)n(-c2ccc(F)cc2)c1=O` [Example 27, N-(4-(2-amino-3-(3-(piperidin-4-yl)prop-1-ynyl)pyridin-4-yloxy)-3-fluorophenyl)-3-(4-fluorophenyl)-1-isopropyl-2,4-dioxo-1,2,3,4-tetrahydropyrimidine-5-carboxamide], the IC50 against c-MET, against MER and on AXL was under 10 nM throughout.
In the case of `COCCN1CCC(CC#Cc2c(Oc3ccc(NC(=O)c4cn(C(C)C)c(=O)n(-c5ccc(F)cc5)c4=O)cc3F)ccnc2N)CC1` [Example 28, N-(4-(2-amino-3-(3-(1-(2-methoxyethyl)piperidin-4-yl)prop-1-ynyl)pyridin-4-yloxy)-3-fluorophenyl)-3-(4-fluorophenyl)-1-isopropyl-2,4-dioxo-1,2,3,4-tetrahydropyrimidine-5-carboxamide], the IC50 at c-MET, against MER and against AXL was under 10 nM each time.
As for `CC(C)N1CCC(CC#Cc2c(Oc3ccc(NC(=O)c4cn(C(C)C)c(=O)n(-c5ccc(F)cc5)c4=O)cc3F)ccnc2N)CC1` [Example 29, N-(4-(2-amino-3-(3-(1-isopropylpiperidin-4-yl)prop-1-ynyl)pyridin-4-yloxy)-3-fluorophenyl)-3-(4-fluorophenyl)-1-isopropyl-2,4-dioxo-1,2,3,4-tetrahydropyrimidine-5-carboxamide], the IC50 at c-MET, on MER and against AXL was under 10 nM throughout.
For the compound `CN(C)C(=O)Cn1cc(C(=O)Nc2ccc(Oc3ccnc(N)c3C#CC(C)(C)N3CCOCC3)c(F)c2)c(=O)n(-c2ccc(F)cc2)c1=O` [Example 33, N-(4-((2-amino-3-(3-methyl-3-morpholinobut-1-yn-1-yl)pyridin-4-yl)oxy)-3-fluorophenyl)-1-(2-(dimethylamino)-2-oxoethyl)-3-(4-fluorophenyl)-2,4-dioxo-1,2,3,4-tetrahydropyrimidine-5-carboxamide], the IC50 (in general, the concentration that inhibits the measured activity by half) against c-MET was under 1000 nM; at MER it was under 100 nM; against AXL it was under 10000 nM.
For the compound `CN(C)C(=O)Cn1cc(C(=O)Nc2ccc(Oc3ccnc(N)c3C#CCN3CCOCC3)c(F)c2)c(=O)n(-c2ccc(F)cc2)c1=O` [Example 34, N-(4-((2-amino-3-(3-morpholinoprop-1-yn-1-yl)pyridin-4-yl)oxy)-3-fluorophenyl)-1-(2-(dimethylamino)-2-oxoethyl)-3-(4-fluorophenyl)-2,4-dioxo-1,2,3,4-tetrahydropyrimidine-5-carboxamide], the IC50 at c-MET is under 10000 nM; against MER, under 100 nM; against AXL, under 1000 nM.
For `CN(C)C(=O)Cn1cc(C(=O)Nc2ccc(Oc3ccnc(N)c3C#CC(C)(C)N3CCNCC3)c(F)c2)c(=O)n(-c2ccc(F)cc2)c1=O` [Example 35, N-(4-((2-amino-3-(3-methyl-3-(piperazin-1-yl)but-1-yn-1-yl)pyridin-4-yl)oxy)-3-fluorophenyl)-1-(2-(dimethylamino)-2-oxoethyl)-3-(4-fluorophenyl)-2,4-dioxo-1,2,3,4-tetrahydropyrimidine-5-carboxamide], in that order: under 10000 nM, under 100 nM and under 10000 nM.
In the same order, the values of `CN1CCN(C(C)(C)C#Cc2c(Oc3ccc(NC(=O)c4cn(CC(=O)N(C)C)c(=O)n(-c5ccc(F)cc5)c4=O)cc3F)ccnc2N)CC1` [Example 36, N-(4-((2-amino-3-(3-methyl-3-(4-methylpiperazin-1-yl)but-1-yn-1-yl)pyridin-4-yl)oxy)-3-fluorophenyl)-1-(2-(dimethylamino)-2-oxoethyl)-3-(4-fluorophenyl)-2,4-dioxo-1,2,3,4-tetrahydropyrimidine-5-carboxamide] are under 10000 nM, under 1000 nM and under 10000 nM.

These data come from US20250171426A1, “PYRIMIDINEDIONE-BASED COMPOUNDS AS AXL, C-MET, AND MER INHIBITORS AND METHODS OF USE THEREOF” (CMG Pharmaceutical Co., Ltd., priority 2022, published 2025).
